Reference: PubChem BioAssay AID248 (DTP/NCI, 2004)
Values joined by “and” are separate entries in the source; they are usually repeats but may differ in a detail not shown here. Equal values may be shown once. Toxic doses and inconclusive results are not listed. No stated cut-off is given here; in the data, active means T/C of 150% or more; inactive means T/C below 125%.

Test system: L1210 leukemia ip in BDF1 mice, survival T/C
Experiment: NCI In Vivo Anticancer Drug Screen. Data for tumor model L1210 Leukemia (intraperitoneal) in B6D2F1 (BDF1) mice
Details: endpoint: mean survival time, higher = longer survival
In short: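 Value reflects the ratio of survival in compound-treated mice to survival in vehicle-treated controls, with both groups carrying the same transplanted tumor.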

[1] = dose: 100.0 mg/kg/injection, schedule: Q01DX009 (ip), vehicle: saline with Tween-80
[2] = dose: 100.0 mg/kg/injection, schedule: Q04DX003 (ip), vehicle: saline with Tween-80
[3] = dose: 200.0 mg/kg/injection, schedule: Q01DX009 (ip), vehicle: saline with Tween-80
[4] = dose: 200.0 mg/kg/injection, schedule: Q04DX003 (ip), vehicle: saline with Tween-80
[5] = dose: 400.0 mg/kg/injection, schedule: Q01DX009 (ip), vehicle: saline with Tween-80
[6] = dose: 400.0 mg/kg/injection, schedule: Q04DX003 (ip), vehicle: saline with Tween-80
[7] = dose: 100.0 mg/kg/injection, schedule: Q01DX009 (ip), vehicle: Klucel (hydroxypropylcellulose) (HPC)
[8] = dose: 200.0 mg/kg/injection, schedule: Q01DX009 (ip), vehicle: Klucel (hydroxypropylcellulose) (HPC)
[9] = dose: 400.0 mg/kg/injection, schedule: Q01DX009 (ip), vehicle: Klucel (hydroxypropylcellulose) (HPC)

Measured: T/C

CC(C)C(=O)[O][Pb]([c]1ccccc1)([c]1ccccc1)[c]1ccccc1
inactive: dose: 12.5 mg/kg/injection, schedule: Q04DX002 (ip), vehicle: Klucel (hydroxypropylcellulose) (HPC) 101 % of control | dose: 25.0 mg/kg/injection, schedule: Q04DX002 (ip), vehicle: Klucel (hydroxypropylcellulose) (HPC) 97 % of control | dose: 50.0 mg/kg/injection, schedule: Q04DX002 (ip), vehicle: Klucel (hydroxypropylcellulose) (HPC) 97 % of control

c1ccc2c(c1)ccc1cc3cc(NCCCCNc4ccc5nc6c(ccc7ccccc76)cc5c4)ccc3nc12
inactive: dose: 1.56 mg/kg/injection, schedule: Q01DX009 (ip), vehicle: saline with Tween-80 95 % of control | dose: 3.13 mg/kg/injection, schedule: Q01DX009 (ip), vehicle: saline with Tween-80 92 % of control | dose: 6.25 mg/kg/injection, schedule: Q01DX009 (ip), vehicle: saline with Tween-80 95 % of control and 111 % of control | dose: 12.5 mg/kg/injection, schedule: Q01DX009 (ip), vehicle: saline with Tween-80 87 % of control

CC(=O)O[C@H]1[C@H]2O[C@]23[C@@H]2CC[C@@H]4C[C@@H](OC(=O)CCC(=O)O)CC[C@]4(C)[C@H]2CC[C@]3(C)[C@H]1c1ccc(=O)oc1
inactive: dose: 0.13 mg/kg/injection, schedule: Q01DX009 (ip), vehicle: Klucel (hydroxypropylcellulose) (HPC) 100 % of control | dose: 0.25 mg/kg/injection, schedule: Q01DX009 (ip), vehicle: Klucel (hydroxypropylcellulose) (HPC) 97 % of control | dose: 0.5 mg/kg/injection, schedule: Q01DX009 (ip), vehicle: Klucel (hydroxypropylcellulose) (HPC) 93 % of control | dose: 1.0 mg/kg/injection, schedule: Q01DX009 (ip), vehicle: Klucel (hydroxypropylcellulose) (HPC) 110 % of control

COc1cc2ccc3c4cc5c(cc4cnc3c2cc1OC)OCO5
inactive: [1] 102 % of control | [2] 89 % of control | [3] 98 % of control | [4] 87 % of control | [5] 106 % of control | [6] 89 % of control

CCC(=O)OCC1CCCO1 (stereo unspecified)
inactive: [7] 103 % of control | [8] 103 % of control | [9] 101 % of control

COC(=O)c1ccccc1NC1=NCCO1
inactive: dose: 50.0 mg/kg/injection, schedule: Q04DX002 (ip), vehicle: saline with Tween-80 98 % of control | dose: 100.0 mg/kg/injection, schedule: Q04DX002 (ip), vehicle: saline with Tween-80 104 % of control | dose: 200.0 mg/kg/injection, schedule: Q04DX002 (ip), vehicle: saline with Tween-80 91 % of control | dose: 400.0 mg/kg/injection, schedule: Q04DX002 (ip), vehicle: saline with Tween-80 88 % of control

NC(N)=N/N=C/C(=N\N=C(N)N)C(F)(F)F
inactive: dose: 15.0 mg/kg/injection, schedule: Q01DX Z (ip), vehicle: saline 102 % of control | dose: 30.0 mg/kg/injection, schedule: Q01DX Z (ip), vehicle: saline 98 % of control | dose: 60.0 mg/kg/injection, schedule: Q01DX Z (ip), vehicle: saline 101 % of control and 108 % of control | dose: 120.0 mg/kg/injection, schedule: Q01DX Z (ip), vehicle: saline 93 % of control and 106 % of control | dose: 120.0 mg/kg/injection, schedule: Q01DX Z (oral), vehicle: saline 96 % of control | dose: 240.0 mg/kg/injection, schedule: Q01DX Z (ip), vehicle: saline 98 % of control | dose: 240.0 mg/kg/injection, schedule: Q01DX Z (oral), vehicle: saline 104 % of control | dose: 480.0 mg/kg/injection, schedule: Q01DX Z (oral), vehicle: saline 98 % of control | dose: 960.0 mg/kg/injection, schedule: Q01DX Z (oral), vehicle: saline 98 % of control

OCCN1CCN(c2ccccc2)CC1
inactive: dose: 50.0 mg/kg/injection, schedule: Q04DX003 (ip), vehicle: saline 104 % of control | dose: 100.0 mg/kg/injection, schedule: Q04DX003 (ip), vehicle: saline 113 % of control | dose: 200.0 mg/kg/injection, schedule: Q04DX003 (ip), vehicle: saline 102 % of control

CCN1/C(=C/C(C)=C/c2sc3ccccc3[n+]2CC)Sc2ccccc21
inactive: dose: 1.25 mg/kg/injection, schedule: Q01DX001 (ip), vehicle: other 111 % of control | dose: 2.5 mg/kg/injection, schedule: Q01DX001 (ip), vehicle: other 97 % of control | dose: 5.0 mg/kg/injection, schedule: Q01DX001 (ip), vehicle: other 103 % of control | dose: 25.0 micrograms/kg/injection, schedule: Q01DX001 (ip), vehicle: saline 98 % of control | dose: 25.0 micrograms/kg/injection, schedule: Q01DX009 (ip), vehicle: Klucel (hydroxypropylcellulose) (HPC) 100 % of control | dose: 50.0 micrograms/kg/injection, schedule: Q01DX001 (ip), vehicle: saline 93 % of control | dose: 50.0 micrograms/kg/injection, schedule: Q01DX009 (ip), vehicle: Klucel (hydroxypropylcellulose) (HPC) 101 % of control | dose: 100.0 micrograms/kg/injection, schedule: Q01DX001 (ip), vehicle: saline 104 % of control | dose: 100.0 micrograms/kg/injection, schedule: Q01DX009 (ip), vehicle: Klucel (hydroxypropylcellulose) (HPC) 108 % of control | dose: 200.0 micrograms/kg/injection, schedule: Q01DX001 (ip), vehicle: saline 96 % of control | dose: 200.0 micrograms/kg/injection, schedule: Q01DX009 (ip), vehicle: Klucel (hydroxypropylcellulose) (HPC) 104 % of control | dose: 200.0 micrograms/kg/injection, schedule: Q01DX015 (ip), vehicle: saline 105 % of control | dose: 400.0 micrograms/kg/injection, schedule: Q01DX009 (ip), vehicle: Klucel (hydroxypropylcellulose) (HPC) 97 % of control

Cc1ccc([N+](=O)[O-])cc1NC(=O)Nc1cccc(C(F)(F)F)c1
inactive: dose: 25.0 mg/kg/injection, schedule: Q01DX009 (ip), vehicle: Klucel (hydroxypropylcellulose) (HPC) 102 % of control | dose: 50.0 mg/kg/injection, schedule: Q01DX009 (ip), vehicle: Klucel (hydroxypropylcellulose) (HPC) 92 % of control | [7] 86 % of control | [8] 87 % of control | [9] 87 % of control

CCCCCCCCCCCCCCCC(=O)N(c1ccc(N)cc1)C(C)CCCN(CC)CC (stereo unspecified)
inactive: [1] 100 % of control | [2] 98 % of control | [3] 100 % of control | [4] 97 % of control | [5] 100 % of control | [6] 90 % of control

O=C(O)c1ccc(OCCOc2ccccc2)c(Cl)c1
inactive: dose: 100.0 mg/kg/injection, schedule: Q01DX009 (ip), vehicle: gum acacia 97 % of control | dose: 200.0 mg/kg/injection, schedule: Q01DX009 (ip), vehicle: gum acacia 88 % of control | dose: 400.0 mg/kg/injection, schedule: Q01DX009 (ip), vehicle: gum acacia 92 % of control

NC(Cn1ccc(=O)c(O)c1)C(=O)O (stereo unspecified)
inactive: dose: 50.0 mg/kg/injection, schedule: Q01DX009 (ip), vehicle: saline 105 % of control | dose: 75.0 mg/kg/injection, schedule: Q04DX003 (ip), vehicle: saline 103 % of control | dose: 100.0 mg/kg/injection, schedule: Q01DX009 (ip), vehicle: saline 102 % of control | [2] 95 % of control | dose: 111.0 mg/kg/injection, schedule: Q01DX Z (ip), vehicle: saline 92 % of control | dose: 150.0 mg/kg/injection, schedule: Q04DX003 (ip), vehicle: saline 92 % of control | dose: 178.0 mg/kg/injection, schedule: Q01DX Z (ip), vehicle: saline 95 % of control | dose: 200.0 mg/kg/injection, schedule: Q01DX009 (ip), vehicle: saline 102 % of control | [4] 94 % of control | dose: 267.0 mg/kg/injection, schedule: Q01DX Z (ip), vehicle: saline 108 % of control | dose: 300.0 mg/kg/injection, schedule: Q04DX003 (ip), vehicle: saline 90 % of control | dose: 400.0 mg/kg/injection, schedule: Q01DX Z (ip), vehicle: saline 93 % of control | [6] 100 % of control | dose: 800.0 mg/kg/injection, schedule: Q01DX009 (ip), vehicle: saline 111 % of control

COC(=O)c1cc2c(cc1O)CCCC2
inactive: dose: 50.0 mg/kg/injection, schedule: Q01DX001 (ip), vehicle: carboxymethylcellulose (CMC) 107 % of control | dose: 100.0 mg/kg/injection, schedule: Q01DX001 (ip), vehicle: carboxymethylcellulose (CMC) 113 % of control | dose: 200.0 mg/kg/injection, schedule: Q01DX001 (ip), vehicle: carboxymethylcellulose (CMC) 107 % of control | dose: 400.0 mg/kg/injection, schedule: Q01DX001 (ip), vehicle: carboxymethylcellulose (CMC) 107 % of control
